Measured values from US9403800B2, “Compounds for inhibition of cancer cell proliferation” (ChemRegen, Inc., priority 2012, dated 2016).

Key:
[1] = tested on: HCT-116 xenograft colon tumors; assay: HCT-116 xenograft colon tumors in nu/nu mice; assay type: in vivo
Procedure: Based on the inhibition of cancer cell proliferation by the disclosed compounds the disclosed compounds likely will inhibit cancer cell migration. […] Following establishment of HCT-116 tumors, daily doses of either Compound 15 or vehicle were administered by i.p. injection at 20 mg/kg for 28 days. […] The weight of the excised HCT-116 tumors was 77% lower for the Compound 15-treated mice relative to the vehicle control on Day 28 of the experiment. […] Following establishment of PC-3 tumors, daily doses of either Compounds 1, 15 or vehicle were administered by i.p. injection at 30 mg/kg for 19 days. […] The weight of the excised PC-3 tumors was 66% for compound 15-treated mice compared to vehicle-treated controls on Day 19 of the experiment.

[2] = tested on: normal human fibroblast cells; assay: effect on normal human fibroblast cells; assay type: cell-based
NF-B signaling pathway = NF-B signaling pathway transcriptional activity (selectivity); assay type: cell-based
HEK-293T cells = assay: Alamar Blue resazurin-based cell viability assay, HEK-293T; conditions: Homo sapiens, read-out: decrease of cell viability, EC50
[3] = chemical stability by HPLC; assay type: physicochemical; conditions: determined by HPLC
Excerpt: As observed from the data presented in Table 1, both free bases and salts gave significant Wnt inhibition potency. On the basis of the lipophilic character of many of the analogs, it is likely interaction site on the molecular target has a lipophilic character although polar interactions are apparent. To increase solubility, were possible, hydrochloride salts of the sulfonamides were synthesized. To afford appropriate bioavailability, sulfonamides were synthesized with chemical and metabolic stability in mind.

SMILES	weight of the excised HCT-116 tumors, lower relative to the vehicle control ([1]; i.p. 20 mg/kg daily, Day 28) [%]	growth of HCT-116 colon tumors ([1]; nu/nu mice, i.p. 20 mg/kg daily for 28 days)	effect on normal human fibroblast cells [2]	transcriptional activity of the NF-B signaling pathway (NF-B signaling pathway)	EC50 (HEK-293T cells) [nM]	half-life [3] [h]
CN1CCN(S(=O)(=O)c2ccc(N3CCCC3=O)cc2)c2ccccc21 [Compound 15, 1-(4-(4-methyl-3,4-dihydroquinoxalin-1(2H)-ylsulfonyl)phenyl)pyrrolidin-2-one]	77	decreased the growth of HCT-116 colon tumors	–	–	–	–
O=C1CCCN1c1ccc(S(=O)(=O)N2CCCc3ccccc32)cc1 [Compound 1, 1-(4-(3,4-dihydroquinolin-1(2H)-ylsulfonyl)phenyl)pyrrolidin-2-one]	–	–	did not have any affect on normal human fibroblast cells	did not alter the transcriptional activity	~25	120
